From US8569327B2, “Phenanthroindolizidine derivative and NFκB inhibitor containing same as active ingredient” (Kabushiki Kaisha Yakult Honsha, priority 2008, dated 2013)

Experiments:
SV40 promoter = SV40 promoter activity, luciferase assay in SW480/SV40-Luc cells; type: cell-based, human; details: for SV40 promoter inhibitory activity IC50: SW480/SV40-Luc cells, luciferase; for IC50: Homo sapiens, SW480, read-out: SV40 promoter inhibitory activity IC50
Description: (§1) The action of the phenanthroindolizidine alkaloid compound of the present invention on the NFκB activity was studied using a luciferase assay. Human colon cancer SW480 cells were transfected with pNFκB-Luc Plasmid (Stratagene), which is a reporter vector in which a five-time tandem repeat of the NFκB responsive element (NRE) is integrated into the upstream of the luciferase gene, using Lipofectamine 2000 (Invitrogen Corporation) in accordance with the attached operating procedure. Subsequently, the cells were cultured in an RPMI1640 medium containing 10% FBS, 100 U/mL penicillin, 100 μg/mL streptomycin, and 0.5 mg/mL G418 to produce SW480 cells having the luciferase gene, the expression of which is regulated by NRE, stably introduced therein (SW480/NRE-Luc cells). Likewise, SW480 cells were transfected with pGL3-Control Vector (Promega Corporation), which is a reporter vector in which the SV40 promoter is integrated into the upstream of the luciferase gene, to produce SW480 cells having the luciferase gene, the expression of which is regulated by the SV40 promoter, stably introduced therein (SW480/SV40-Luc cells). The SW480/NRE-Luc cells or the SW480/SV40-Luc cells were suspended in an RPMI1640 medium containing 10% FBS, 100 U/mL penicillin, and 100 μg/mL streptomycin (10% FBS/RPMI1640), and then seeded in a 96-well microplate, followed by culturing under conditions of 5% CO2 and at 37° C. (5000 cells/well). After an overnight culture, the compound of the present invention was added, followed by culturing for one hour. Further, 50 ng/mL TNFα (Sigma-Aldrich Corporation) was added, followed by culturing for four hours. Subsequently, a Steady-Glo Luciferase Assay reagent (Promega Corporation) was added, and the luminescent intensity was detected by SpectraMax M5e (Molecular Devices, Inc.) to measure the intracellular luciferase activity. It is to be noted that the action of the compound of the present invention on the NFκB activity or the SV40 promoter activity was shown as IC50 values (the concentration of a test compound needed for 50% inhibition of the induction of the luciferase expression).

[1] = system: human non-small cell lung cancer A549 cells; experiment: Inhibitory action on the proliferation of A549 cells; type: cell-based; details: 96 hours, TetraColor ONE; for IC50: Homo sapiens, A549
Protocol: (§2) The action of the phenanthroindolizidine alkaloid compound of the present invention on the proliferation of human colon cancer SW480 cells, HT-29 cells, and human non-small cell lung cancer A549 cells was studied. The SW480 cells were suspended in a 10% FBS/RPMI1640 and then seeded in a 96-well microplate, followed by culturing in 5% CO2 at 37° C. (2000 cells/well). The A549 cells and the HT-29 cells were each suspended in a DMEM medium containing 10% FBS, 100 U/mL penicillin, and 100 μg/mL streptomycin (10% FBS/DMEM) and a DMEM F-12 HAM medium containing 10% FBS, 100 U/mL penicillin, and 100 μg/mL streptomycin (10% FBS/DMEM F12 HAM), and then seeded in 96-well microplates, followed by culturing in 5% CO2 at 37° C. (1000 cells/well). After an overnight culture, the compound of the present invention was added, followed by further culturing for 48 hours (SW480 cells) and 96 hours (A549 cells and HT-29 cells). After culturing, the number of viable cells was counted using TetraColor ONE (Seikagaku Corporation) in accordance with the attached operating procedure. The results were expressed as the concentration of a test compound needed for 50% inhibition of the proliferation of the cells (IC50).

[2] = system: human colon cancer SW480 cells; experiment: Inhibitory action on the proliferation of SW480 cells; type: cell-based; details: 48 hours, TetraColor ONE; for IC50: Homo sapiens, SW480
Protocol: as §2

[3] = system: human colon cancer HT-29 cells; experiment: Inhibitory action on the proliferation of HT-29 cells; type: cell-based; details: 96 hours, TetraColor ONE; for IC50: Homo sapiens, HT-29
Protocol: as §2

NFκB = experiment: Inhibitory action on the NFκB activity, luciferase assay in SW480/NRE-Luc cells; type: cell-based, human; details: for NFκB inhibitory activity IC50: SW480/NRE-Luc cells, compound 1 h then 50 ng/mL TNFα 4 h, luciferase; for IC50: Homo sapiens, SW480, read-out: NFκB inhibitory activity IC50
Description: as §1

| Compound | SV40 promoter inhibitory activity IC50 (SV40 promoter) | A549 proliferation inhibitory action IC50 [1] | SW480 proliferation inhibitory action IC50 [2] | HT-29 proliferation inhibitory action IC50 [3] | NFκB inhibitory activity IC50 (NFκB) | IC50 (SV40 promoter) | IC50 [1] | IC50 [2] | IC50 [3] | IC50 (NFκB) |
| --- | --- | --- | --- | --- | --- | --- | --- | --- | --- | --- |
| COc1cc2c3c(c4ccc(OC(=O)CCCCCCC(=O)Oc5ccc6c7c(c8cc(OC)c(OC)cc8c6c5)CN5CCC[C@H]5[C@H]7O)cc4c2cc1OC)[C@H](O)[C@@H]1CCCN1C3.Cl [Compound 24, octanedionic acid(9S,12S)-13-hydroxy-6,7-dimethoxy-9,10,11,12,12a,13-hexahydro-9a-aza-cyclopenta[b]triphenylene-3-yl ester(12aS,13S)-13-hydroxy-6,7-dimethoxy-9,10,11,12,12a,13-hexahydro-9a-aza-cyclopenta[b]triphenylene-3-yl ester hydrochloride] | >100 ng/mL | 0.18 ng/mL | 0.77 ng/mL | 0.24 ng/mL | 0.90 ng/mL |  |  |  |  |  |
| COc1cc2c3c(c4ccc(N)cc4c2cc1OC)[C@H](O)[C@@H]1CCCN1C3.Cl [Compound 25, (12aS,13S)-3-amino-6,7-dimethoxy-9,10,11,12,12a,13-hexahydro-9a-aza-cyclopenta[b]triphenylene-13-ol hydrochloride] |  |  |  |  |  | > 100 ng/mL | 0.4 ng/mL | 2.3 ng/mL | 0.28 ng/mL | 1.1 ng/mL |
| COc1cc2c3c(c4ccc(NC(=O)OCc5ccccc5)cc4c2cc1OC)[C@H](O)[C@@H]1CCCN1C3.Cl [Compound 26, ((12aS,13S)-13-hydroxy-6,7-dimethoxy-9,10,11,12,12a,13-hexahydro-9a-aza-cyclopenta[b]triphenylene-3-yl)-carbamic acid benzyl ester hydrochloride] |  |  |  |  |  | > 1000 ng/mL | 8.8 ng/mL | 37.3 ng/mL | 6.7 ng/mL | 19.9 ng/mL |
| COc1cc2c3c(c4cccc(O)c4c2cc1OC)[C@H](O)[C@@H]1CCCN1C3.Cl [Compound 30, (12aS,13S)-6,7-dimethoxy-9,10,11,12,12a,13-hexahydro-9a-aza-cyclopenta[b]triphenylene-4,13-diol hydrochloride] |  |  |  |  |  | > 1000 ng/mL | 1.2 ng/mL | 0.45 ng/mL | 30.5 ng/mL | 0.017 ng/mL |
| COc1cc2c3c(c4ccc(OC(=O)C(C)(C)C)cc4c2cc1OC)C[C@@H]1CCCN1C3.Cl [Compound 35, 2,2-dimethyl-propionic acid(S)-6,7-dimethoxy-9,10,11,12,12a,13-hexahydro-9a-aza-cyclopenta[b]triphenylene-3-yl ester hydrochloride] | >1000 ng/mL | 1.2 ng/mL | 4.1 ng/mL | 3.7 ng/mL | 2.4 ng/mL |  |  |  |  |  |
| CCc1ccc2c3c(c4cc(OC)c(OC)cc4c2c1)CN1CCC[C@H]1C3.Cl [Compound 41, (S)-3-ethyl-6,7-dimethoxy-9,10,11,12,12a,13-hexahydro-9a-aza-cyclopenta[b]triphenylene hydrochloride] |  |  |  |  |  | > 10000 ng/mL | 112 ng/mL | 391 ng/mL | 167 ng/mL | 281 ng/mL |
| COc1cc2c3c(c4ccc(NC(=O)OCC(C)C)cc4c2cc1OC)C[C@@H]1CCCN1C3.Cl [Compound 42, ((S)-6,7-dimethoxy-9,10,11,12,12a,13-hexahydro-9a-aza-cyclopenta[b]triphenylene-3-yl)-carbamic acid isobutyl ester hydrochloride] |  |  |  |  |  | > 10000 ng/mL | 27 ng/mL | 96.3 ng/mL | 19 ng/mL | 117 ng/mL |
| COc1cc2c3c(c4ccc(OC(=O)c5cccnc5)cc4c2cc1OC)C[C@@H]1CCCN1C3.CS(=O)(=O)O [Compound 47, nicotinic acid(S)-6,7-dimethoxy-9,10,11,12,12a,13-hexahydro-9a-aza-cyclopenta[b]triphenylene-3-yl ester methanesulfonate] | >1000 ng/mL | 1.1 ng/mL | 0.38 ng/mL | 1.9 ng/mL | 0.42 ng/mL |  |  |  |  |  |
| COc1cc2c3c(c4ccc(OC(=O)C(C)(C)C)cc4c2cc1OC)C[C@@H]1CCCN1C3.CS(=O)(=O)O [Compound 48, 2,2-dimethyl-propionic acid(S)-6,7-dimethoxy-9,10,11,12,12a,13-hexahydro-9a-aza-cyclopenta[b]triphenylene-3-yl ester methanesulfonate] | >1000 ng/mL | 1.2 ng/mL | 0.58 ng/mL | 2.0 ng/mL | 0.40 ng/mL |  |  |  |  |  |
| CCCCC(=O)Oc1ccc2c3c(c4cc(OC)c(OC)cc4c2c1)CN1CCC[C@H]1C3.CS(=O)(=O)O [Compound 49, pentanoic acid(S)-6,7-dimethoxy-9,10,11,12,12a,13-hexahydro-9a-aza-cyclopenta[b]triphenylene-3-yl ester methanesulfonate] | >1000 ng/mL | 1.1 ng/mL | 0.62 ng/mL | 2.0 ng/mL | 0.41 ng/mL |  |  |  |  |  |
| CCCC(=O)Oc1ccc2c3c(c4cc(OC)c(OC)cc4c2c1)CN1CCC[C@H]1C3.CS(=O)(=O)O [Compound 50, butyric acid(S)-6,7-dimethoxy-9,10,11,12,12a,13-hexahydro-9a-aza-cyclopenta[b]triphenylene-3-yl ester methanesulfonate] | >100 ng/mL | 0.86 ng/mL | 0.54 ng/mL | 1.5 ng/mL | 0.34 ng/mL |  |  |  |  |  |
| CCC(=O)Oc1ccc2c3c(c4cc(OC)c(OC)cc4c2c1)CN1CCC[C@H]1C3.CS(=O)(=O)O [Compound 51, propionic acid(S)-6,7-dimethoxy-9,10,11,12,12a,13-hexahydro-9a-aza-cyclopenta[b]triphenylene-3-yl ester methanesulfonate] | >100 ng/mL | 0.78 ng/mL | 1.1 ng/mL | 1.6 ng/mL | 0.80 ng/mL |  |  |  |  |  |
